# Earlier results in patent US20220354960A1, “IMMUNE CHECKPOINT BLOCKING BISPECIFIC MOLECULES” (THE SCRIPPS RESEARCH INSTITUTE, priority 2019, published 2022).
# Test system: melanoma
# Details: for three-year survival of patients with melanoma: human, in vivo; for overall survival (>5 years): patients with melanoma
Substance,three-year survival of patients with melanoma,overall survival (>5 years)
Pembrolizumab: anti-programmed cell death-1 (PD-1) antibody,~70%,~30%
Ipilimumab: anti-cytotoxic T-lymphocyte antigen-4 (CTLA-4) antibody,~70%,~30%
